Like-named read-outs stand apart in the source and are kept apart here.
Key:
[1] = test system: tomato yellow leaf curl virus (TYLCV); experiment: Test for symptom relief effects against tomato yellow leaf curl virus disease; type: in vivo; details: 500 ppm alone
Procedure: N,N-dimethylformamide based solutions were prepared according to the formulations shown in Table 18 to give chemical liquids for the tests.
Tomato nursery plants (breed: Momotaro) grown up to the 8 leaf stage in a greenhouse were prepared.
Tomato nursery plants suffering from tomato yellow leaf curl virus (TYLCV) were used as inoculation sources.
A diseased plant was obliquely cut in round slices at the stem, and graft-inoculated to a tomato nursery plant. In order to prevent dryness, parafilm was wrapped around the grafted portion for protection.
After the graft inoculation, the above chemical solution was sprayed on the stem and leaf part of the tomato nursery plant in a sufficient amount. Then, the above chemical solution was sprayed 3 times at intervals of about one week in a sufficient amount. Symptoms of tomato yellow leaf curl disease were investigated at an elapsed time of 25 days.
Symptoms were evaluated by 5 levels of onset indices of 0 (with no onset) to 4 (fulminant).
Onset inhibition percentages as compared with a region treated with solvent DMF only (Chemical solution 3) were computed by the following formula.
Onset inhibition percentage=(onset index of region treated with solvent only)−(onset index of each treatment region))/(onset index of region treated with solvent only)×100
Further, the expectation values of onset inhibition percentages were computed based on the Colby's equation.
The Colby's equation is E=M+N−MN/100. In the equation, E represents the expectation value of an onset inhibition percentage (%), and M represents an onset inhibition percentage (%) calculated from measurements when the substance (A1) is used alone, and N represent an onset inhibition percentage (%) calculated from measurements when the substance (A2) is used alone.

[2] = test system: Tomato nursery plants (breed: Momotaro); type: in vivo; details: spray, 7 days; for phytotoxicity index: index 0 to 10
Procedure: N,N-dimethylformamide based solutions were prepared according to the formulations shown in Table 10 to give chemical solutions for the tests.
Tomato nursery plants (breed: Momotaro) grown up to the 4 leaf stage in a greenhouse were prepared.
The above chemical solution was sprayed to the stem and leaf parts of the above tomato nursery plants in an amount of liquid dropping, and then air dried. They were allowed to grow for 7 days under the average temperature and humidity conditions on March in Japan.
Subsequently, phytotoxicity such as a degree of leaf browning and outgrowth inhibition was investigated.
Phytotoxicity was evaluated by 11 levels of phytotoxicity indices of 0 (with no disorder) to 10 (withering to death).
Chemical poisoning injury relief percentages as compared with a region treated with solvent DMF only were computed by the following formula.
Chemical poisoning injury relief percentage=(phytotoxicity index of region treated with solvent only)−(phytotoxicity index of each treated region))/(phytotoxicity index of region treated with solvent only)×100

[3] = agric. chemical 100 ppm alone (reference)
[4] = agric. chemical 200 ppm alone (reference)

| SMILES | Onset percentage(%) ([1]; tomato graft-inoculated, sprayed 4 times, 25 days) | Onset inhibition percentage(%) ([1]; vs solvent DMF only, 25 days) | Expectation value(%) ([1]; expectation value of onset inhibition percentage) | relief percents of phytotoxicity (%) [2, 3] [%] | phytotoxicity index ([2]; agric. chemical 100 ppm alone) | relief percents of phytotoxicity (%) [2, 4] [%] | phytotoxicity index ([2]; agric. chemical 200 ppm alone) |
| --- | --- | --- | --- | --- | --- | --- | --- |
| O=C1O[C@H]([C@@H](O)CO)C(O)=C1O[C@H]1O[C@H](CO)[C@@H](O)[C@H](O)[C@H]1O [Ascorbyl glucoside] | 40 | 20 | 20 |  |  |  |  |
| CO/C=C(/C(=O)OC)c1ccccc1Oc1cc(Oc2ccccc2C#N)ncn1 [Azoxystrobin] |  |  |  | 0 | 5 | 0 | 6 |
| O=[N+]([O-])c1cc(C(F)(F)F)c(Cl)c([N+](=O)[O-])c1Nc1ncc(C(F)(F)F)cc1Cl [Fluazinam] |  |  |  | 0 | 6 | 0 | 6 |

Source: patent US20150126368A1, “METHOD OF PROVIDING PLANT WITH STRESS RESISTANCE” (Nippon Soda Co., Ltd., priority 2012, published 2015)
